Results as given in paper PMC12472621, “Excavating Precursors from Herb Pairs Polygala tenuifolia and Acori tatarinowii: Synthesis and Anticonvulsant Activity Evaluation of 3,4,5-Trimethoxycinnamic Acid (TMCA) Piperazine Amide Derivatives” (Pharmaceuticals, 2025).
Where “and” joins values, the source holds several entries; their conditions need not be identical. Equal values may be shown once. Read-outs that look alike come from different tables or passages of the source.

Tests used:
[1] = system: maximal electroshock (MES) induced seizures; test: Maximal electroshock (MES) test; assay type: in vivo, mice; settings: Mus musculus, ip; for ED50: 95% confidence intervals in parentheses
From the text: (§1) Male Kunming mice (23–28 g) were maintained under controlled conditions with ad libitum access to standard pellet diet and water. Test compounds were formulated immediately prior to administration in normal saline containing 0.5% Tween-80. Our experiment was authorized by the Institutional Animal Care and Use Committee of Shaanxi University of Chinese Medicine (animal ethics certificate number: SUCMDL20210309027).
The MES test carried out following the method of Swinyard. A 60 Hz current (50 mA; 0.25 s duration) was delivered via corneal electrodes using a YSD-4G electro convulsion meter (Zhenghua Instruments, Huaibei, China, SN: ZH0056232). […] Test compounds were suspended in an identical vehicle. Protection was defined as abolition of tonic hindlimb extension.

LDH enzyme = test: In vitro LDH assay; assay type: biochemical
Description: Employing the commercial LDH enzyme (Solarbio Life Science, Beijing, China, CAS:9001-60-9, Lot. Document No. 14240222001) includes a colorimetric assay kit designed to assess the synthesized substances’ capacity to suppress the LDH enzyme, using established techniques with slight alterations. In summary, a 96-well microplate was filled with 30 μL of LDH enzyme (300 U/mL) and 70 μL of the inhibitor mixture (0.1 mM in final concentration). Following a 10 min pre-incubation process at ambient temperature, […] of NADH (0.2 mM) was introduced. Subsequently, each well received 40 μL of phosphate buffer (20 mM, pH 6.8), reaching a total volume of 250 μL, followed by a 10 min incubation of the assay plate at 28 °C. Subsequently, […] absorbance was gauged at 340 nm utilizing a SpectraMax 190 Absorbance Microplate Reader (Molecular Devices, San Jose, CA, USA). […] In the initial screening, the level of suppression by the test substances was denoted as a percentage (%). The calculation for the LDH inhibition ratio was as follows:Inhibition (%) = [(Asample − Ablank)/Acontrol] × 100%
Asample denotes the OD340 absorbance of test compound and Ablank is the OD340 absorbance for the blank. Acontrol represents the OD340 absorbance of control.

[2] = Acute neurotoxicity screening (rotarod test); assay type: in vivo, mice; settings: male, Kunming, mouse, in vivo, ip, 30 min post-administration, 95% confidence intervals in parentheses
Description: as §1
Neurotoxicity was assessed via a rotarod test. Mice were trained to maintain balance on a rotating rod (diameter: 4 cm; 24 rpm). Trained animals received i.p. injections of test compounds or reference drugs. At 30 min post-administration, neurologic impairment was defined as failure to remain on the rod for 3 min (≥3 falls within the testing period). Data were used to calculate TD50 values.

scPTZ-induced seizures = test: Pentylenetetrazole (PTZ)-induced seizure test (scPTZ); assay type: in vivo; settings: 100 mg/kg i.p., PTZ 85 mg/kg s.c., mice
Description: as §1
Seizures were induced by subcutaneous (s.c.) administration of PTZ (85 mg/kg in 1% v/v Tween-80/0.9% NaCl), 30 min after compound treatment. This dose produces clonic seizures (≥5 s duration) in 97% of naive mice. Latency to seizure onset was recorded during continuous observation.

[3] = system: neurons in CA1 and CA3 regions of the hippocampus; test: Silver staining of hippocampal tissue; assay type: in vivo; settings: PTZ model mice, compared with PTZ group
Description: Following the creation of the PTZ model, a modified version of the silver impregnation staining technique was applied for silver staining, enabling the observation of changes in neuronal fibers and synapses throughout diseases. Brain tissue slices from each mouse, encased in paraffin, underwent deparaffinization using xylene and absolute ethanol, followed by a treatment in acidic formaldehyde, and then incubation in a glycine–silver mixture. Following the application of a reducing solution for staining, the samples were analyzed using an optical microscope. Against a yellow backdrop, nerve cells’ axons, dendrites, collagen fibers, and neurofibrillary tangles were colored in dark brown or black.

[4] = system: PTZ-induced epileptic spikes; test: Electroencephalogram (EEG) after PTZ; assay type: in vivo, mice; settings: 100 mg/kg i.p.
From the text: Mice sedated with urethane were subjected to aseptic craniotomy, involving the stereotaxic insertion of cortical screw electrodes aligned with bregma coordinates (anterior–posterior: +3.0 mm; mediolateral: ±1.5 mm) and a reference electrode (anterior–posterior: −2.0 mm; mediolateral: −1.5 mm). The electrodes were secured using dental acrylic, followed by a recovery period of 5–7 days for the animals before the instrumentation. The continuous EEG data were captured through using 8-channel bioamplifiers linked to a PowerLab 8/30 system (AD Instruments, Shanghai, China). After a 30 min acclimatization period in the recording chambers, initial activity levels were documented for 15–20 min. […] After 60 min, pentylenetetrazol (PTZ, 85 mg/kg i.p.) was administered, initiating seizure. Sampling of EEG signals occurred at a frequency of 200 Hz, utilizing a bandpass filter ranging from 0.1 to 60 Hz. Electrographic convulsions were characterized by spikes surpassing double the baseline amplitude, quantified by (1) the delay before the initial spike (seconds after PTZ); (2) the frequency of spikes (counts per 60 s period from the first spike) through established peak-detection methods.

LDH = test: Immunofluorescence staining for LDH in hippocampus; assay type: in vivo; settings: hippocampus CA1, PTZ model mice
Description: Brain samples were extracted, preserved in 4% paraformaldehyde for a day, and subsequently immersed in a 30% sucrose solution to dehydrate. Post OCT embedding, slices of brain tissue measuring 16 μm in thickness were sliced using a cryostat. Following the permeabilization using 0.5% TritonX-100 and subsequent blocking with 10% goat serum at ambient temperature to remove nonspecific staining, the tissue samples were subjected to overnight incubation at 4 °C with the primary antibody, LDHA (Proteintech (Rosemont, IL, USA), Cat No. 19987-1-AP, Lot: 00106920, rabbit anti-rat 1:200). On the next day, the slides underwent incubation using a secondary antibody. The slides underwent counterstaining using DAPI. […] slices were examined and visualized utilizing the VS200-BU Slide Scanner (Olympus Corporation, Tokyo, Japan).

[5] = 100 mg/kg i.p., mice, 0.5 h, read-out: MES model, protected mice/total mice, 0.5 h (converted)
[6] = 100 mg/kg i.p., mice, 1 h, read-out: MES model, protected mice/total mice, 1 h (converted)
[7] = 100 mg/kg i.p., mice, 2 h, read-out: MES model, protected mice/total mice, 2 h (converted)
[8] = 100 mg/kg i.p., mice, 3 h, read-out: MES model, protected mice/total mice, 3 h (converted)

SMILES	responders at 100 mg/kg [1, 5] [%]	responders at 100 mg/kg [1, 6] [%]	responders at 100 mg/kg [1, 7] [%]	responders at 100 mg/kg [1, 8] [%]	ED50 ([1]; mice) [mg/kg]	LDH Inhibition Ratio (0.1 mM) (LDH enzyme) [%]	TD50 at 30 min [2] [mg/kg]	SCPTZ Latent Time (100 mg/kg, s) (scPTZ-induced seizures)	SCPTZ Protective Ratio (100 mg/kg) (scPTZ-induced seizures)	responders at 100 mg/kg ([1]; 0.5 h, read-out: MES model, protected mice/total mice, 0.5 h) [%]	responders at 100 mg/kg ([1]; 1 h, read-out: MES model, protected mice/total mice, 1 h) [%]	responders at 100 mg/kg ([1]; 2 h, read-out: MES model, protected mice/total mice, 2 h) [%]	responders at 100 mg/kg ([1]; 3 h, read-out: MES model, protected mice/total mice, 3 h) [%]	silver staining, neurons in hippocampal CA1 and CA3 [3]	latency to the first PTZ-induced epileptic spike (EEG) ([4]; PTZ 85 mg/kg i.p. after 60 min)	spike frequency within 60 s post-initial spike (EEG) ([4]; compared to PTZ controls)	LDH immunolabelling intensity (LDH)
COc1cc(/C=C/C(=O)N2CCN(C(=O)CCC(=O)N3CCN(c4cccc(Cl)c4Cl)CC3)CC2)cc(OC)c1OC [B12, (E)-1-(4-(2,3-dichlorophenyl)piperazin-1-yl)-4-(4-(3-(3,4,5-trimethoxyphenyl)acryloyl)piperazin-1-yl)butane-1,4-dione]	100	75	25	25	60.3	44.3 ± 6.5	417	230.3 ± 17.4 s	1/4								
COc1cc(/C=C/C(=O)N2CCN(CCCC(=O)N3CCN(c4cccc(Cl)c4Cl)CC3)CC2)cc(OC)c1OC [A12, (E)-1-(4-(2,3-dichlorophenyl)piperazin-1-yl)-4-(4-(3-(3,4,5-trimethoxyphenyl)acryloyl)piperazin-1-yl)butan-1-one]	100	75	75	25	54.7	41.9 ± 9.2	284	161.5 ± 24.0 s	0/4								
COc1cc(/C=C/C(=O)N2CCN(CCCC(=O)N3CCN(C(c4ccc(F)cc4)c4ccc(F)cc4)CC3)CC2)cc(OC)c1OC [A9, (E)-1-(4-(bis(4-fluorophenyl)methyl)piperazin-1-yl)-4-(4-(3-(3,4,5-trimethoxyphenyl)acryloyl)piperazin-1-yl)butan-1-one]	100	75	50	0	37.5		305	204.5 ± 12.6 s	1/4								
COc1cc(/C=C/C(=O)N2CCN(C(=O)CCC(=O)N3CCN(C(c4ccc(F)cc4)c4ccc(F)cc4)CC3)CC2)cc(OC)c1OC [B9, (E)-1-(4-(bis(4-fluorophenyl)methyl)piperazin-1-yl)-4-(4-(3-(3,4,5-trimethoxyphenyl)acryloyl)piperazin-1-yl)butane-1,4-dione]					23.6		235	274.3 s and 274.3 ± 17.2 s	3/4	100	75	25	0	alleviated symptoms	extended	significantly reduced	lower than the values found in the PTZ group
COc1cc(/C=C/C(=O)N2CCN(CCCC(=O)N3CCN(c4ccc(C(F)(F)F)cc4)CC3)CC2)cc(OC)c1OC [A14, (E)-1-(4-(4-(trifluoromethyl)phenyl)piperazin-1-yl)-4-(4-(3-(3,4,5-trimethoxyphenyl)acryloyl)piperazin-1-yl)butan-1-one]	100	100	75	25	52.4	42.6 ± 7.3	358	233.5 ± 18.3 s	2/4								
COc1cc(/C=C/C(=O)N2CCN(C(=O)CCC(=O)N3CCN(c4cccc(Cl)c4)CC3)CC2)cc(OC)c1OC [B13, (E)-1-(4-(3-chlorophenyl)piperazin-1-yl)-4-(4-(3-(3,4,5-trimethoxyphenyl)acryloyl)piperazin-1-yl)butane-1,4-dione]	50	25	0	0													
COc1cc(OC)c(OC)cc1/C=C/COC(=O)CCCN1CCN(C(=O)/C=C/c2cc(OC)c(OC)c(OC)c2)CC1 [A5, (E)-3-(2,4,5-trimethoxyphenyl)allyl 4-(4-((E)-3-(3,4,5-trimethoxyphenyl)acryloyl)piperazin-1-yl)butanoate]	75	75	50	0													
COc1cc(/C=C/C(=O)N2CCN(CCCC(=O)N3CCN(c4ncccn4)CC3)CC2)cc(OC)c1OC [A16, (E)-1-(4-(pyrimidin-2-yl)piperazin-1-yl)-4-(4-(3-(3,4,5-trimethoxyphenyl)acryloyl)piperazin-1-yl)butan-1-one]	75	75	50	0													
COc1cc(/C=C/C(=O)N2CCN(CCCC(=O)OCC=Cc3ccccc3)CC2)cc(OC)c1OC [A6, cinnamyl 4-(4-((E)-3-(3,4,5-trimethoxyphenyl)acryloyl)piperazin-1-yl)butanoate]	50	50	25	0													
COc1cc(/C=C/C(=O)N2CCN(CCCC(=O)N3CCN(C(c4ccccc4)c4ccccc4)CC3)CC2)cc(OC)c1OC [A8, (E)-1-(4-benzhydrylpiperazin-1-yl)-4-(4-(3-(3,4,5-trimethoxyphenyl)acryloyl)piperazin-1-yl)butan-1-one]	75	50	25	0													
